The source made the active and inactive calls. Where only a bound is given, the exact number is not on record here.

The source of these data is ChEMBL document CHEMBL1201862, “PubChem BioAssay data set” (2004).

Experiment [1] has as its target Receptor-type tyrosine-protein kinase FLT3 (Homo sapiens, UniProt P36888). Type of experiment: functional.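 Further: FLT3 was tested as one member of a kinome-wide kinase panel.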
In experiment [2] the target is Fibroblast growth factor receptor 1 (Homo sapiens, UniProt P11362). Format: functional.
Experiment [3] concerns the target Cyclin-dependent kinase 9 (Homo sapiens, UniProt P50750). Type of experiment: functional.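 Further: value from the CDK9 entry of a kinome-spanning kinase panel.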
The target in experiment [4] is Dual specificity tyrosine-phosphorylation-regulated kinase 1B (Homo sapiens, UniProt Q9Y463). Briefly: Navigating the Kinome. Panel member name: DYRK1B. Type of experiment: functional.
Chain of Dual specificity tyrosine-phosphorylation-regulated kinase 1B (Q9Y463 whole entry): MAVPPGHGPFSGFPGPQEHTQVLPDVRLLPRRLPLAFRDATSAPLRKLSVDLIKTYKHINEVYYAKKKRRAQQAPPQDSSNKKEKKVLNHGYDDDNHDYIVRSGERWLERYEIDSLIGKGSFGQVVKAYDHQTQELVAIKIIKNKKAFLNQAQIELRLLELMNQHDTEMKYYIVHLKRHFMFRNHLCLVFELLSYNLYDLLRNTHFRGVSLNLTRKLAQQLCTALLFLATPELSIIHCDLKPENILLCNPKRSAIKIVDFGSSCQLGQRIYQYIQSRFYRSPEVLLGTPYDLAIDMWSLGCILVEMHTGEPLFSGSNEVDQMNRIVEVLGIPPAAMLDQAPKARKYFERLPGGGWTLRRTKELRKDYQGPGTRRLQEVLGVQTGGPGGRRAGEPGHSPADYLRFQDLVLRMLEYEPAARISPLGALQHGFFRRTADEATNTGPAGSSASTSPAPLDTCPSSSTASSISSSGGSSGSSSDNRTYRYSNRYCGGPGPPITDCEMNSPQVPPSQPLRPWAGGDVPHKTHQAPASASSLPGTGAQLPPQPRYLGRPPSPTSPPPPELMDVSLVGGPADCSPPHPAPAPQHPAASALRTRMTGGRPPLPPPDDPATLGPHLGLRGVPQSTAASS
The target in experiment [5] is Death-associated protein kinase 3 (Homo sapiens, UniProt O43293). Format: functional.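 Further: measured as one member of a kinome-wide profiling panel.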
Experiment [6] deals with MAP/microtubule affinity-regulating kinase 3 (Homo sapiens, UniProt P27448). Type of experiment: functional.
Chain of MAP/microtubule affinity-regulating kinase 3 (P27448 whole entry): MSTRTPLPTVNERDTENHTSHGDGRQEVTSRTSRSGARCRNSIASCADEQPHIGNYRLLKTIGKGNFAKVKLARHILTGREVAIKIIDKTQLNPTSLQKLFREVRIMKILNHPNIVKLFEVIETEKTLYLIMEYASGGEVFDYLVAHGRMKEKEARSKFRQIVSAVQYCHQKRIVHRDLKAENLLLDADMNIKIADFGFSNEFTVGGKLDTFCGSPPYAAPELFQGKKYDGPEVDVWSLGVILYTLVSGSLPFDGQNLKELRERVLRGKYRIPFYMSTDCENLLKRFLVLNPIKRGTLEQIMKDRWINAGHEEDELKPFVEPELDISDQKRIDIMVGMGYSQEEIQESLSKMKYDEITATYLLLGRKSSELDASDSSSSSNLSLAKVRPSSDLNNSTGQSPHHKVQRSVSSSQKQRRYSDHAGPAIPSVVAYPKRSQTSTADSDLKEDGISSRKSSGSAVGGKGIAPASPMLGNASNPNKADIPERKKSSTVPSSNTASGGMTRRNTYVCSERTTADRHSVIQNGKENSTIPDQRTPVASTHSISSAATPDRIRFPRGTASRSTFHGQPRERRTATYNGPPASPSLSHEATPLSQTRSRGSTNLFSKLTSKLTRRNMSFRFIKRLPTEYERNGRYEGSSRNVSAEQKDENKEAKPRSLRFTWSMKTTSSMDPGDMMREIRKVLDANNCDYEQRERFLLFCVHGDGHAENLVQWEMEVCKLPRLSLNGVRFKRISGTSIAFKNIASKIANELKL
Experiment [7] addresses Dual specificity tyrosine-phosphorylation-regulated kinase 1A (Homo sapiens, UniProt Q13627). Format: functional.
The target of experiment [8] is Calcium/calmodulin-dependent protein kinase type 1 (Homo sapiens, UniProt Q14012). Type of experiment: functional.
Chain of Calcium/calmodulin-dependent protein kinase type 1 (Q14012 whole entry): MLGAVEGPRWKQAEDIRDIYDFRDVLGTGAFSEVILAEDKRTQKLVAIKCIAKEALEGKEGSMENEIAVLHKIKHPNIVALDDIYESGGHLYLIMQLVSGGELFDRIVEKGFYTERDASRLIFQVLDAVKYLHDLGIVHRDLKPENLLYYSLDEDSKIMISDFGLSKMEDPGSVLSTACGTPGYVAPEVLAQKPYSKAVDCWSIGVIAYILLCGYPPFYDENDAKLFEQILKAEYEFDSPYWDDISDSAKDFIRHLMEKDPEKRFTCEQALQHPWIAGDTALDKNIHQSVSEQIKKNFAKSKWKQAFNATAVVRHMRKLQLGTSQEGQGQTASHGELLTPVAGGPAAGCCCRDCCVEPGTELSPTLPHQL
The target of experiment [9] is Cyclin-dependent kinase 8 (Homo sapiens, UniProt P49336). Briefly: Navigating the Kinome. Panel member name: CDK8. Type of experiment: functional.
The target of experiment [10] is RAC-alpha serine/threonine-protein kinase (Homo sapiens, UniProt P31749). Format: functional.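 Further: AKT1 affinity measured as one member of a kinome-wide kinase profiling panel.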
Chain of RAC-alpha serine/threonine-protein kinase (P31749 whole entry): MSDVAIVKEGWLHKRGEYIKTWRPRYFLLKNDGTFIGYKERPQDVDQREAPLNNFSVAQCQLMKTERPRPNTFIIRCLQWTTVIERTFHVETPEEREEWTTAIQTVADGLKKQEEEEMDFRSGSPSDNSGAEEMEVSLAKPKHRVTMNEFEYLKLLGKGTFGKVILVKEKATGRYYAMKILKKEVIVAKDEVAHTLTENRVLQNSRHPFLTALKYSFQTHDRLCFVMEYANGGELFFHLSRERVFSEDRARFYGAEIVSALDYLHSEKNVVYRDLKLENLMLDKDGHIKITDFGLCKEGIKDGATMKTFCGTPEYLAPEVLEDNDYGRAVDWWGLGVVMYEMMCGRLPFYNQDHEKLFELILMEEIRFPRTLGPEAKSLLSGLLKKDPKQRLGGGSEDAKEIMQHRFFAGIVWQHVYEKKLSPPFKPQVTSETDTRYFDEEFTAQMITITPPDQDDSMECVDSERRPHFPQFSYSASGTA
For experiment [11], the target named is Proto-oncogene tyrosine-protein kinase ROS (Homo sapiens, UniProt P08922). Format: functional.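 Further: ROS1 tested as one member of a kinome-wide kinase panel.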
Chain of Proto-oncogene tyrosine-protein kinase ROS (P08922 whole entry): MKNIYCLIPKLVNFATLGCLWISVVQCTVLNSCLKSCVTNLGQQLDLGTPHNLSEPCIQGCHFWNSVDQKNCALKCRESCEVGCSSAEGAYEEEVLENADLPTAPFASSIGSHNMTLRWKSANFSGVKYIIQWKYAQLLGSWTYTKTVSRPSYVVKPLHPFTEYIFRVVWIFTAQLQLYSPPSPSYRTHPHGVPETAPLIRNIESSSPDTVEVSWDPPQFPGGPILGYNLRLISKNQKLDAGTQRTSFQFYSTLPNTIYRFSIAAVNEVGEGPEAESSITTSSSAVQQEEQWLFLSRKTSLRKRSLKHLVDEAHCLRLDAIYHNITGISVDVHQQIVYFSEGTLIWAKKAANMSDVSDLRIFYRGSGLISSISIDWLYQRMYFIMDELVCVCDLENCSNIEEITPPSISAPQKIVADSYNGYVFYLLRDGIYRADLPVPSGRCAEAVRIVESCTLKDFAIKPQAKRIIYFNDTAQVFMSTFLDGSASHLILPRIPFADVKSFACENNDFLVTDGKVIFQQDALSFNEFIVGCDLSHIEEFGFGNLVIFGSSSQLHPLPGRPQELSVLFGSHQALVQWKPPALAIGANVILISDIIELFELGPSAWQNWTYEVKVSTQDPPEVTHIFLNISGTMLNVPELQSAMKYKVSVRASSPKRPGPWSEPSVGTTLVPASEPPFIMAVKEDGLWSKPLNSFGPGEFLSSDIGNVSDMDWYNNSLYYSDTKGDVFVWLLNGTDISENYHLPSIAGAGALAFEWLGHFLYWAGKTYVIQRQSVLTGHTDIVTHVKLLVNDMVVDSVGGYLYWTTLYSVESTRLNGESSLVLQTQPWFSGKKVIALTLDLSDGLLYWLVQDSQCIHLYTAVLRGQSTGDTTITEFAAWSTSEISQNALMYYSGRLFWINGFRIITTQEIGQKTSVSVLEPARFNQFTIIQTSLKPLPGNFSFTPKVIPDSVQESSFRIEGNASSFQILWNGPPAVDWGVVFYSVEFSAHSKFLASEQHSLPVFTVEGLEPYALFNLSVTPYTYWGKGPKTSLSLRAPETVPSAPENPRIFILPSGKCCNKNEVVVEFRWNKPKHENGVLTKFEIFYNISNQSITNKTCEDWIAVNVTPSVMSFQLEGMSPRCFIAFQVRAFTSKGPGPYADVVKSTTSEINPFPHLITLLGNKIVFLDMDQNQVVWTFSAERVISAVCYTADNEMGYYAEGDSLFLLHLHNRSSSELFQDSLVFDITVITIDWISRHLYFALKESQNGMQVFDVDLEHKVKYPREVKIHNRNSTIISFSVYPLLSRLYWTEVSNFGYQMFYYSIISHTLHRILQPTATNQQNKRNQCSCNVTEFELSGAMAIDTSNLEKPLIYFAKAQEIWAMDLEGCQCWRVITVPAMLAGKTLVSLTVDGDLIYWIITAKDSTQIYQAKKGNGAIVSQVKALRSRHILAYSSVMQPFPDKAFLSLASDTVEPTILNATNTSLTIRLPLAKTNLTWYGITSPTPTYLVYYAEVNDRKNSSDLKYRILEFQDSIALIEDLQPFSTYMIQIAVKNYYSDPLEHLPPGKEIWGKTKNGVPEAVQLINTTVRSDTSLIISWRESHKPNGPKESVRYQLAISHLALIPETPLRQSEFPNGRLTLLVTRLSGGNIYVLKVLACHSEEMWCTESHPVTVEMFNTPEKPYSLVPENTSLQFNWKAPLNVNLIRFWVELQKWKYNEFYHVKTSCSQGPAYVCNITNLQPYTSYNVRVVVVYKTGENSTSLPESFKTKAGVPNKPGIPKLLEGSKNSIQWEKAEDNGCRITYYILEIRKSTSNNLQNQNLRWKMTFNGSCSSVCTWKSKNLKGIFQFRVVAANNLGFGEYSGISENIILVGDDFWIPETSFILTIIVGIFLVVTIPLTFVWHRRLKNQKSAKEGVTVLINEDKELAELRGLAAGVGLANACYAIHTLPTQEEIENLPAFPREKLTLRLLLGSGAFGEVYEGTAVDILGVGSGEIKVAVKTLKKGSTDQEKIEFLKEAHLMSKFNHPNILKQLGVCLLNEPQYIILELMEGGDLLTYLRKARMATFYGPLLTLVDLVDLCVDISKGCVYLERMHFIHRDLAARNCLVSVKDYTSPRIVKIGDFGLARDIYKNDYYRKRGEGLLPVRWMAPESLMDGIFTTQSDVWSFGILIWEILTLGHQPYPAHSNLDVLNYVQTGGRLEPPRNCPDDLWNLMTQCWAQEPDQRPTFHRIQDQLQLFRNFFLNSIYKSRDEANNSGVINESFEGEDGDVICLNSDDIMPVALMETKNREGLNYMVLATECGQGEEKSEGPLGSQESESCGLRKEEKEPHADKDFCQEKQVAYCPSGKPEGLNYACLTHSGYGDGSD
The target in experiment [12] is Photoreceptor-specific nuclear receptor (Homo sapiens, UniProt Q9Y5X4). Format: functional.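 Further: potency for compounds that break the NR2E3 corepressor complex and count as activators.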
Chain of Photoreceptor-specific nuclear receptor (Q9Y5X4 whole entry): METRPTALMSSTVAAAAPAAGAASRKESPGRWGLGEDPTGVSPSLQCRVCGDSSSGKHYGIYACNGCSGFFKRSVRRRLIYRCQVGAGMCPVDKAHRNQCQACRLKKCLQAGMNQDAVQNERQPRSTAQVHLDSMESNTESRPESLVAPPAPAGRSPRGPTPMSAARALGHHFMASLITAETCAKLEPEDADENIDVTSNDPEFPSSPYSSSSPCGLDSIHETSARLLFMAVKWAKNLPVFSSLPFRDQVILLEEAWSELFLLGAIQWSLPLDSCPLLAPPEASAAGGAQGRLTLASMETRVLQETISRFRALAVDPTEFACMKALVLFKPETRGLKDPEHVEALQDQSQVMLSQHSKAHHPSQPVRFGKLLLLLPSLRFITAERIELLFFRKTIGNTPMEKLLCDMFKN
For experiment [13], the target named is T1, Replicative DNA helicase DnaB (Mycobacterium tuberculosis, UniProt P9WMR3).
T1 sequence (P9WMR3 whole entry): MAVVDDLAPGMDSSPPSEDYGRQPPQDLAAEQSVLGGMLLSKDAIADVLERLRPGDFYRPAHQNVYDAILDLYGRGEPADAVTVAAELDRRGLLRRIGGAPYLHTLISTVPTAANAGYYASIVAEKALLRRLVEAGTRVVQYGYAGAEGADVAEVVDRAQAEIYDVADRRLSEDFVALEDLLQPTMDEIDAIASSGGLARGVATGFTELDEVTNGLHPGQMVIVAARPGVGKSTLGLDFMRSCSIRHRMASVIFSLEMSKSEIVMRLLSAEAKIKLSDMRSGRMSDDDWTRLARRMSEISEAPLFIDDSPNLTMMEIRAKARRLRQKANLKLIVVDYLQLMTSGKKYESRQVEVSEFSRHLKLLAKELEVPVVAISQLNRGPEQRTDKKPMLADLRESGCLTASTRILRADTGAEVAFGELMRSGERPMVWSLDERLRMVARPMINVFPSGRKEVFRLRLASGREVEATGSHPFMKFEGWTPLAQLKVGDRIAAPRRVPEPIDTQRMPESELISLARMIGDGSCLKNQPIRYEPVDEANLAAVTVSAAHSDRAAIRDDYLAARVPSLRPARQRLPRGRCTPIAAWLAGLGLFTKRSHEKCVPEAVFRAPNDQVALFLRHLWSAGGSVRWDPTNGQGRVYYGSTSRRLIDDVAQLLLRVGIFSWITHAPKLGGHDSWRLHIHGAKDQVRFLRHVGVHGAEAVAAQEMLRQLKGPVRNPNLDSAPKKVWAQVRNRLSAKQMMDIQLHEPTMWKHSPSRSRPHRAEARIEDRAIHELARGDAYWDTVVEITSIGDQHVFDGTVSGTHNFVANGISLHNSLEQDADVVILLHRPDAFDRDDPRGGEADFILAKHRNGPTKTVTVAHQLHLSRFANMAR
Briefly: DnaB intein splicing inhibitors, dose response, biochemical, cell-free fluorescence (AID 449749). Format: functional.

The subject of experiment [14] is HEK293. Briefly: cells. Format: functional, cell-based. Conditions: Homo sapiens.
Experiment [15] deals with T2, Protein RecA (Mycobacterium tuberculosis, UniProt P9WHJ3).
T2 sequence (P9WHJ3 whole entry): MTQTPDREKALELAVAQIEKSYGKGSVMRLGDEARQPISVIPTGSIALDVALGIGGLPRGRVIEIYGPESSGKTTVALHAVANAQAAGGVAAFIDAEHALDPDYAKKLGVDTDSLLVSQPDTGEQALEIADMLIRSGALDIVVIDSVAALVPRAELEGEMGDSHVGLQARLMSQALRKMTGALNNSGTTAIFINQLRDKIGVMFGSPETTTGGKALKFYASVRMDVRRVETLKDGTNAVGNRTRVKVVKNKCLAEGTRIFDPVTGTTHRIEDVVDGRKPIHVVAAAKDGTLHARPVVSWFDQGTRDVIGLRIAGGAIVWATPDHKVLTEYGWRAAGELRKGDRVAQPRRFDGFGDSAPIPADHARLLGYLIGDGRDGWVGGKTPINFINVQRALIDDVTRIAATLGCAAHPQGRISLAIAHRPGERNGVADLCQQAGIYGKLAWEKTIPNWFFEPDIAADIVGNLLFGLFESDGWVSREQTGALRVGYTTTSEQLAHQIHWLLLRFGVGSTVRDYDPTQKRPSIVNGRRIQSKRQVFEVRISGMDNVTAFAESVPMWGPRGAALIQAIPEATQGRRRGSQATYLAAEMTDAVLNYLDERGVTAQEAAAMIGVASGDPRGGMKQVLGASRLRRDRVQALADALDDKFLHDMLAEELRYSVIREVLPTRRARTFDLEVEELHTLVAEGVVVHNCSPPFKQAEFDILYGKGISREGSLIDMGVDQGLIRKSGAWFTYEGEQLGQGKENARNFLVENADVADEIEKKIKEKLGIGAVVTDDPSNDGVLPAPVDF
Briefly: Fluorescence Cell-Free Homogeneous Dose Retest to Identify Inhibitors of RecA-Intein Splicing Activity. [Related pubchem assays (depositor defined):AID2097, AID2223, AID489010, AID492950]. Format: functional.

A short description of experiment [16]: cytotoxicity in KRAS-transformed pancreatic duct cells, primary screen, cell-based, fluorescence, HTS (AID 431).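 Further: cell line used: HPDE-C7K.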 Format: functional. The settings on record: Homo sapiens.
Experiment [17] in a line: HeLa 2N DNA content increase, dose response, cell-based, IC50 (AID 1117349). Type of experiment: functional.
Experiment [18] relates to Streptococcus. Briefly: Group A Streptococcus viability loss, dose response, counter-screen for streptokinase expression inhibitor project, luminescence, BacTiterGlo (AID 1915).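 Further: potency for reduction of bacterial viability or growth.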 Type of experiment: functional, organism-based. In general terms: Counterscreens check selectivity or assay interference.
Experiment [19] in a line: cytotoxicity toward HCT116 cells – cell-based, CellTiter-Glo luminescence, IC50, dose response (AID 1117332). Format: functional. The settings on record: HCT-116.
The subject of experiment [20] is Streptococcus sp. 'group A'. Briefly: growth inhibition of control SK(-) GAS strain, dose response, counter-screen for streptokinase expression inhibitor project, luminescence, kanamycin, BacTiterGlo, confirmation (AID 1900). Type of experiment: functional, organism-based.

Take `N#Cc1ccc2[nH]c(O)c(-c3ccc(CN4CCOCC4)cn3)c2c1` [AZD-1080]: the Ki (as a rule, the dissociation constant of the complex between target and ligand, obtained from inhibition or displacement) in experiment [1] is > 3.16 µM (inactive); in [2], > 3.98 µM (inactive); in experiment [3], > 1.58 µM (inactive); in experiment [4], 1 µM (active); in [5] it was > 3.98 µM (inactive); in experiment [6], > 6.31 µM (inactive). Moreover, the Ki in experiment [7] is > 3.16 µM (inactive); in experiment [8], > 6.31 µM (inactive); in [9], > 3.98 µM (inactive); in [10], > 7.94 µM (inactive); in experiment [11], > 2 µM (inactive).
`O=C1C=C(N2CCOCC2)c2ccccc2C1=O`: the IC50 (as a rule, the concentration at which inhibition is half-maximal) in experiment [12] was > 39.8 µM (not active); in [14] it was 9.46 µM (active). Further, in [13], the AC50 – broadly, the concentration at which the activity in the assay is half-maximal – is 1.05 µM (active). In addition, in experiment [15], the EC50 (usually the concentration at which the effect is half-maximal) was 0.15 µM (active).
In the case of `CCc1oc2ccccc2c1C(=O)c1cc(Br)c(O)c(Br)c1` [BENZBROMARONE], the half-maximal effective concentration (EC50) is 5.29 µM (active) in [16], > 150 µM (not active) in experiment [18], 11.5 µM (active) in experiment [15] and 7.44 µM (active) in experiment [20]. The half-inhibitory concentration (IC50) in experiment [12] is > 39.8 µM (not active); in [17], > 10 µM (inactive); in [19] it was 1.06 µM (active). Besides, the AC50 in experiment [13] is 2.75 µM (active).
